Data published in US9550763B2, “Heterocyclic ring and carbocyclic derivative” (Shionogi & Co., Ltd., priority 2012, dated 2017).

The compounds below were run against human P2X3 receptor (Homo sapiens (Human), UniProt P56373) (assay: Evaluation of human P2X3 receptor inhibitory activity (Test Example 1-1, FDSS 3000, 96-well, 50 nM ATP)). Conditions: human P2X3 receptor in C6BU-1 cells; Test Example 1-1 (compounds I-001 to I-300).
Format: cell-based
Description: Stably expressing cell line (C6BU-1 cell transfected with human P2X3 receptor gene (GenBank accession number Y07683) was used. The cells were seeded in a 96-well microtiter plate at a concentration of 8000 cells/well and cultured in the medium (7.0% fetal bovine serum, 7.0% horse serum, 1% antibiotic and antifungal in DMEM) for one day at 37° C. under 5% carbon dioxide atmosphere. The medium was replaced with 4 μM Fluo-3-AM solution (20 mM HEPES, 137 mM NaCl, 5.27 mM KCl, 0.9 mM MgCl2, 1.26 mM CaCl2, 5.6 mM D-glucose, 2.5 mM probenecid, 1% BSA, and 0.08% Pluronic F-127, pH 7.5) and incubated at 37° C. under 5% dioxide carbon atmosphere for one hour. The plate was washed with washing buffer (20 mM HEPES, 137 mM NaCl, 5.27 mM KCl, 0.9 mM MgCl2, 1.26 mM CaCl2, 5.6 mM D-glucose, 2.5 mM probenecid, pH7.5), and each well was added with 40 μL of this buffer. The plate was placed in High-Throughput Screening System. FDSS 3000 (Hamamatsu Photonics K.K.). Measurement of fluorescence intensity by FDSS 3000 was started, and 40 μL of DMSO solutions containing different concentrations of the test compound as prepared by dilution with dilution buffer (20 mM HEPES, 137 mM NaCl, 5.27 mM KCl, 0.9 mM MgCl2, 1.26 mM CaCl2, 5.68 mM D-glucose, 2.5 mM probenecid, 0.1% Pluronic F-127, pH7.5) were dispensed to each well through the built-in automatic dispenser. Five minutes after, 50 nM ATP solution (50 μL) prepared by dilution with the dilution buffer was dispensed through the built-in automatic dispenser, and the measurement of fluorescence intensity was continued for 4 min. For each well, the specific maximum fluorescence intensity was calculated as the ratio of the maximum fluorescence intensity after addition of the ATP solution to the fluorescence intensity at the starting of the measurement. The 50% inhibitory concentration (IC50) was calculated under the assumption that the specific maximum fluorescence intensity without test compound is 0% inhibition and that the specific maximum fluorescence intensity when the dilution buffer was added in place of ATP solution is 100% inhibition, to evaluate the inhibitory activity of the test compound. FDSS software (Hamamatsu Photonics K.K.) was used for calculation of the specific maximum fluorescence intensity. IC50 was calculated using Microsoft Excel (Microsoft Corporation) and XLfit (idbs Ltd.)
The data of the compounds I-001 to I-300 are the results by the method mentioned in Test Example 1-1, and the data of the compounds I-301 to I-483 are the results by the method mentioned in Test Example 1-2.

human P2X3 receptor, sequence (P56373 whole entry): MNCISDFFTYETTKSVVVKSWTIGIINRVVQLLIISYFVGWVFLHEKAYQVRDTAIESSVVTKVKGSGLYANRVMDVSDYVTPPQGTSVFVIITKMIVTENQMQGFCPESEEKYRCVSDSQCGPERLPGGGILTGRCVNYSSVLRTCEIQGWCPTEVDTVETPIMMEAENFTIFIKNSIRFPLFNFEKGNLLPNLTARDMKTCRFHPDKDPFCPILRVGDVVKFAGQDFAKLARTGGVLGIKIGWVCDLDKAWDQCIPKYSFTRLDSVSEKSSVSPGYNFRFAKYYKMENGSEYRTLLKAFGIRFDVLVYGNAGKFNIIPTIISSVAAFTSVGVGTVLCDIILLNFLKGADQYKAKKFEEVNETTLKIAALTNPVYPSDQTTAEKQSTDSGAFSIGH

Which IC50 does the source give for `CCn1c(=O)cc(Nc2ccc(Oc3cncc(C(N)=O)c3)cc2)n(Cc2ccc(Cl)cc2)c1=O` [Compound I-001] here?
Its IC50 is 0.011 µM.

How did the IC50 turn out when `CCC(=O)Nc1c[nH]/c(=N\c2ccc(Oc3cccc(C#N)n3)cc2)n(Cc2ccc(Cl)cc2)c1=O` [Compound I-006] was run?
The IC50 was 0.005 µM.

`COC(=O)Nc1c[nH]/c(=N\c2ccc(Oc3cccc(C(N)=O)n3)cc2)n(Cc2ccc(Cl)cc2)c1=O` [Compound I-007] was tested. Which IC50 did it give?
The IC50 was 0.023 µM.

With `CCn1c(=O)cc(Nc2ccc(Oc3cccc(C(=O)OC)c3)cc2)n(Cc2ccc(Cl)cc2)c1=O` [Compound I-008, 1-(4-chlorobenzyl)-3-ethyl-6-[4-(3-methoxycarbonylphenoxy)phenylamino]pyrimidin-2,4(1H,3H)-dione] as the compound, how does the IC50 read?
The IC50 was 0.038 µM.

With `CCn1c(=O)cc(Nc2ccc(Oc3cccc(C#N)n3)cc2)n(Cc2ccc(Cl)cc2)c1=O` [Compound I-009] as the compound, how does the IC50 read?
Its IC50 is 0.005 µM.

How did the IC50 turn out when `CCOC(=O)c1cnc(Oc2ccc(Nc3cc(=O)n(CC)c(=O)n3Cc3ccc(Cl)cc3)cc2)s1` [Compound I-010] was run?
The IC50 was 0.004 µM.

With `CCn1c(=O)cc(Nc2ccc(Oc3cccc(C#N)n3)c(F)c2)n(Cc2ccc(Cl)cc2)c1=O` [Compound I-011] as the compound, how does the IC50 read?
The IC50 was 0.002 µM.

For `CCn1c(=O)cc(Nc2ccc(Oc3cccc(C#N)n3)c(C)c2)n(Cc2ccc(Cl)cc2)c1=O` [Compound I-012], which IC50 is on record?
The IC50 was 0.002 µM.

With `CCn1c(=O)cc(Nc2ccc(Oc3ncc(C(=O)O)s3)cc2)n(Cc2ccc(Cl)cc2)c1=O` [Compound I-013] as the compound, how does the IC50 read?
The IC50 was 0.002 µM.

Which IC50 does the source give for `CCOC(=O)c1cn(Cc2ccc(Cl)cc2)c(Nc2ccc3oc(CC)c(C)c3c2)nc1=O` [Compound I-015] here?
Its IC50 is 0.16 µM.

`CCc1oc2ccc(Nc3nc(=O)c(C(=O)O)cn3Cc3ccc(Cl)cc3)cc2c1C` [Compound I-017] was tested. Which IC50 did it give?
The IC50 was 0.401 µM.

`CCOC(=O)c1c[nH]/c(=N\c2ccc(Oc3cccc(F)n3)cc2)n(Cc2ccc(Cl)cc2)c1=O` [Compound I-018] was tested. Which IC50 did it give?
Its IC50 is 0.013 µM.

For `CCc1oc2ccc(Nc3ncc(C(=O)NC4CCOCC4)c(=O)n3Cc3ccc(Cl)cc3)cc2c1C` [Compound I-019, 1-(4-chlorobenzyl)-2-(2-ethyl-3-methylbenzofuran-5-ylamino)-5-(tetrahydro-2H-pyran-4-ylcarbamoyl)pyrimidin-6(1H)-one], which IC50 is on record?
Its IC50 is 0.135 µM.

`CCc1oc2ccc(Nc3ncc(C(N)=O)c(=O)n3Cc3ccc(Cl)cc3)cc2c1C` [Compound I-020] was tested. Which IC50 did it give?
The IC50 was 0.05 µM.

Which IC50 does the source give for `CCc1oc2ccc(Nc3nc(=O)c(C(=O)NC4CCOCC4)cn3Cc3ccc(Cl)cc3)cc2c1C` [Compound I-021] here?
Its IC50 is 0.02 µM.

Which IC50 does the source give for `CCc1oc2ccc(Nc3nc(=O)c(C(=O)NC(C)C)cn3Cc3ccc(Cl)cc3)cc2c1C` [Compound I-022] here?
The IC50 was 0.094 µM.

With `CCn1c(=O)cc(Nc2ccc(Oc3cccc(C(=O)O)c3)cc2)n(Cc2ccc(Cl)cc2)c1=O` [Compound I-023, 1-(4-chlorobenzyl)-3-ethyl-6-[4-(3-hydroxycarbonylphenoxy)phenylamino]pyrimidin-2,4(1H,3H)-dione] as the compound, how does the IC50 read?
The IC50 was 0.003 µM.

How did the IC50 turn out when `CCn1c(=O)cc(Nc2ccc(Oc3cccc(C(N)=O)c3)cc2)n(Cc2ccc(Cl)cc2)c1=O` [Compound I-024] was run?
Its IC50 is 0.014 µM.

With `CCn1c(=O)cc(Nc2ccc(Oc3cccc(C(N)=O)n3)cc2)n(Cc2ccc(Cl)cc2)c1=O` [Compound I-025] as the compound, how does the IC50 read?
The IC50 was 0.006 µM.

For `CCn1c(=O)cc(Nc2ccc(Oc3cccc(C(N)=O)n3)c(F)c2)n(Cc2ccc(Cl)cc2)c1=O` [Compound I-026], which IC50 is on record?
Its IC50 is 0.003 µM.

For `CCn1c(=O)cc(Nc2ccc(Oc3cccc(C(N)=O)n3)c(C)c2)n(Cc2ccc(Cl)cc2)c1=O` [Compound I-027], which IC50 is on record?
The IC50 was 0.004 µM.

`CCn1c(=O)cc(Nc2ccc(Oc3cccc(C(=O)O)n3)c(C)c2)n(Cc2ccc(Cl)cc2)c1=O` [Compound I-028] was tested. Which IC50 did it give?
The IC50 was 0.001 µM.

With `O=C(O)c1c[nH]/c(=N\c2ccc(Oc3cccc(F)n3)cc2)n(Cc2ccc(Cl)cc2)c1=O` [Compound I-029] as the compound, how does the IC50 read?
Its IC50 is 0.236 µM.

For `CCc1oc2ccc(/N=c3\[nH]cc(NC(=O)C4CCOCC4)c(=O)n3Cc3ccc(Cl)cc3)cc2c1C` [Compound I-030, 1-(4-chlorobenzyl)-2-(2-ethyl-3-methylbenzofuran-5-ylamino)-5-(tetrahydro-2H-pyran-4-ylcarbonylamino)pyrimidin-6(1H)-one], which IC50 is on record?
The IC50 was 0.005 µM.

With `CCc1oc2ccc(Nc3nc(=O)c(C(=O)NC(CC)CC)cn3Cc3ccc(Cl)cc3)cc2c1C` [Compound I-031] as the compound, how does the IC50 read?
Its IC50 is 0.054 µM.

For `CCc1oc2ccc(Nc3ncc(C(=O)NCCO)c(=O)n3Cc3ccc(Cl)cc3)cc2c1C` [Compound I-032], which IC50 is on record?
The IC50 was 0.034 µM.

Which IC50 does the source give for `CCn1c(=O)cc(Nc2ccc(Oc3cccc(C(=O)O)n3)c(F)c2)n(Cc2ccc(Cl)cc2)c1=O` [Compound I-033] here?
The IC50 was 0.001 µM.

How did the IC50 turn out when `NC(=O)c1c[nH]/c(=N\c2ccc(Oc3cccc(F)n3)cc2)n(Cc2ccc(Cl)cc2)c1=O` [Compound I-034] was run?
The IC50 was 0.014 µM.

Which IC50 does the source give for `CCOC(=O)c1sc(Oc2ccc(Nc3cc(=O)n(CC)c(=O)n3Cc3ccc(Cl)cc3)cc2)nc1C` [Compound I-036] here?
Its IC50 is 0.022 µM.

With `O=c1c(CO)c[nH]/c(=N\c2ccc(Oc3cccc(F)n3)cc2)n1Cc1ccc(Cl)cc1` [Compound I-037] as the compound, how does the IC50 read?
Its IC50 is 0.034 µM.

For `NC(=O)c1cccc(Oc2ccc(Nc3ncc(NC(=O)C4CCOCC4)c(=O)n3Cc3ccc(Cl)cc3)cc2)n1` [Compound I-038], which IC50 is on record?
Its IC50 is 0.002 µM.

`CCn1c(=O)cc(Nc2ccc(Oc3ncc(C(N)=O)s3)cc2)n(Cc2ccc(Cl)cc2)c1=O` [Compound I-039] was tested. Which IC50 did it give?
Its IC50 is less than 0.004 µM.

With `CCn1c(=O)cc(Nc2ccc(Oc3cccc(C(=O)O)n3)cc2)n(Cc2ccc(Cl)cc2)c1=O` [Compound I-040] as the compound, how does the IC50 read?
The IC50 was 0.003 µM.

`CCn1c(=O)cc(Nc2ccc(Oc3nc(C)c(C(=O)O)s3)cc2)n(Cc2ccc(Cl)cc2)c1=O` [Compound I-041] was tested. Which IC50 did it give?
The IC50 was 0.003 µM.

For `O=C(NC1CCOCC1)c1c[nH]/c(=N\c2ccc(Oc3cccc(F)n3)cc2)n(Cc2ccc(Cl)cc2)c1=O` [Compound I-042], which IC50 is on record?
Its IC50 is 0.014 µM.

How did the IC50 turn out when `CCOC(=O)c1cnc(Nc2ccc(Oc3cccc(C(N)=O)n3)cc2)n(Cc2ccc(Cl)cc2)c1=O` [Compound I-043] was run?
The IC50 was 0.007 µM.

With `CCOC(=O)c1cccc(Oc2ccc(Nc3cc(=O)n(CC)c(=O)n3Cc3ccc(Cl)cc3)nc2)c1` [Compound I-044] as the compound, how does the IC50 read?
The IC50 was 0.103 µM.

`CCc1oc2ccc(/N=c3\[nH]cc(C=O)c(=O)n3Cc3ccc(Cl)cc3)cc2c1C` [Compound I-045] was tested. Which IC50 did it give?
The IC50 was 0.226 µM.

Which IC50 does the source give for `CCc1oc2ccc(/N=c3\[nH]cc(CO)c(=O)n3Cc3ccc(Cl)cc3)cc2c1C` [Compound I-046] here?
The IC50 was 0.278 µM.

With `CCc1oc2ccc(/N=c3\[nH]cc(NS(=O)(=O)C4CCOCC4)c(=O)n3Cc3ccc(Cl)cc3)cc2c1C` [Compound I-047] as the compound, how does the IC50 read?
Its IC50 is 0.018 µM.

How did the IC50 turn out when `CCc1oc2ccc(/N=c3\[nH]cc(C=NN4CCOCC4)c(=O)n3Cc3ccc(Cl)cc3)cc2c1C` [Compound I-048] was run?
The IC50 was 0.022 µM.

`CCc1oc2ccc(/N=c3\[nH]cc(CNC4CCOCC4)c(=O)n3Cc3ccc(Cl)cc3)cc2c1C` [Compound I-049] was tested. Which IC50 did it give?
The IC50 was 0.225 µM.

How did the IC50 turn out when `O=C(O)c1cccc(Oc2ccc(Nc3ncc(C(=O)O)c(=O)n3Cc3ccc(Cl)cc3)cc2)n1` [Compound I-050] was run?
Its IC50 is 0.067 µM.

For `CCOC(=O)c1cnc(Nc2ccc(Oc3cccc(C(=O)OC)n3)cc2)n(Cc2ccc(Cl)cc2)c1=O` [Compound I-051], which IC50 is on record?
The IC50 was 0.027 µM.

How did the IC50 turn out when `CCn1c(=O)cc(Nc2ccc(Oc3ccc(C(=O)OC)cc3)cn2)n(Cc2ccc(Cl)cc2)c1=O` [Compound I-052] was run?
Its IC50 is 0.021 µM.

How did the IC50 turn out when `CCn1c(=O)cc(Nc2ccc(Oc3cccc(C(=O)O)c3)cn2)n(Cc2ccc(Cl)cc2)c1=O` [Compound I-053] was run?
Its IC50 is 0.02 µM.

For `CCn1c(=O)cc(Nc2ccc(Oc3ccc(C(=O)O)cc3)cn2)n(Cc2ccc(Cl)cc2)c1=O` [Compound I-054], which IC50 is on record?
Its IC50 is 0.043 µM.

How did the IC50 turn out when `CCOC(=O)c1cnc(Nc2ccc(Oc3cccc(C(=O)O)n3)cc2)n(Cc2ccc(Cl)cc2)c1=O` [Compound I-055] was run?
The IC50 was 0.002 µM.

Which IC50 does the source give for `CCOC(=O)c1cnc(Oc2ccc(Nc3ncc(C(=O)OCC)c(=O)n3Cc3ccc(Cl)cc3)cc2)s1` [Compound I-056] here?
The IC50 was 0.013 µM.

Which IC50 does the source give for `CCc1oc2ccc(/N=c3\[nH]cc(CN4CCOCC4)c(=O)n3Cc3ccc(Cl)cc3)cc2c1C` [Compound I-057] here?
Its IC50 is 0.269 µM.

With `CCc1oc2ccc(/N=c3\[nH]cc(C=NOC)c(=O)n3Cc3ccc(Cl)cc3)cc2c1C` [Compound I-058] as the compound, how does the IC50 read?
The IC50 was 0.223 µM.

Which IC50 does the source give for `CCOC(=O)c1cnc(Nc2ccc(Oc3ncc(C(=O)O)s3)cc2)n(Cc2ccc(Cl)cc2)c1=O` [Compound I-059] here?
Its IC50 is 0.006 µM.

How did the IC50 turn out when `CCOC(=O)c1cccc(Oc2ccc(Nc3cc(=O)n(CC)c(=O)n3Cc3ccc(Cl)cc3)cn2)c1` [Compound I-060] was run?
The IC50 was 0.16 µM.

How did the IC50 turn out when `CCn1c(=O)cc(Nc2ccc(Oc3ccc(C(=O)OC)cc3)nc2)n(Cc2ccc(Cl)cc2)c1=O` [Compound I-061] was run?
Its IC50 is 0.065 µM.
